Earlier results, collected in paper PMC7904743, “WIDOCK: a reactive docking protocol for virtual screening of covalent inhibitors” (Journal of Computer-Aided Molecular Design, 2021).
Where two headings read alike, the source gives them in different places.

Tests used:
[1] = thiol reactivity, cited from earlier work
[2] = tested on: OTUB2; conditions: experimental actives if % labeling higher than 50%, cited from earlier work
[3] = tested on: NUDT7; conditions: protein labeling at 200 μM; experimental actives if % labeling higher than 50%; cited from earlier work
[4] = natural log of average kinetic rate constant
[5] = natural log of average rate constant
[6] = natural log of average rate constant k
[7] = natural logarithm of average rate constant

Row | Compound | ln(avg k) [1, 4] | ln(avg k) [1, 5] | OTUB2 % labeling ([2]; OTUB2 protein labeling) [%] | NUDT7 % labeling [3] [%] | ln(avg k) [1, 6] | ln(avg k) [1, 7] | OTUB2 % labeling [2] [%]
1 | CC1CN(c2ccc(NC(=O)CCl)cc2)CC(C)O1 (centres unmarked) [PCM-0102750, CC1CN(c2ccc(NC(=O)CCl)cc2)CC(C)O1] | -15.710 | -15.710 | 24 | 0 | – | – | –
2 | O=C(CCl)Nc1ccc(F)cc1Cl [PCM-0103040, O=C(CCl)Nc1ccc(F)cc1Cl] | -16.348 | -16.348 | 0 | 0 | – | – | –
3 | NC(=O)C1CN(C(=O)CCl)c2ccccc2O1 (centres unmarked) [PCM-0102245, NC(=O)C1CN(C(=O)CCl)c2ccccc2O1] | – | – | – | 12 | -15.513 | -15.513 | 15
4 | O=C(CCl)Nc1ccc(N2CCCCC2)cc1 [PCM-0102612, O=C(CCl)Nc1ccc(N2CCCCC2)cc1] | – | – | – | 0 | -16.206 | -16.206 | 37
5 | O=C(CCl)N1CCN(c2ccccc2[N+](=O)[O-])CC1 [PCM-0103016, O=C(CCl)N1CCN(c2ccccc2[N+](=O)[O-])CC1] | -15.523 | -15.523 | 9 | 27 | – | – | –
6 | O=C(CCl)NC1CCN(C2CC2)CC1 [PCM-0103055, O=C(CCl)NC1CCN(C2CC2)CC1] | -16.125 | -16.125 | 0 | 0 | – | – | –
7 | O=C(CCl)NC1CCOCC1 [PCM-0103045, O=C(CCl)NC1CCOCC1] | -16.016 | -16.016 | 0 | 0 | – | – | –
8 | CC(C)c1ccc(NC(=O)CCl)cc1 [PCM-0102532, CC(C)c1ccc(NC(=O)CCl)cc1] | – | – | – | 18 | -15.987 | -15.987 | 33
9 | O=C(CCl)NC(=O)NCc1cccs1 [PCM-0102753, O=C(CCl)NC(=O)NCc1cccs1] | -15.984 | -15.984 | 23 | 0 | – | – | –
10 | O=C(CCl)Nc1ccnn1C1CCCC1 [PCM-0102336, O=C(CCl)Nc1ccnn1C1CCCC1] | – | – | – | 0 | -15.629 | -15.629 | 19
11 | CC1(C)C(=O)Nc2ccccc2N1C(=O)CCl [PCM-0102546, CC1(C)C(=O)Nc2ccccc2N1C(=O)CCl] | – | – | – | 18 | -15.068 | -15.068 | 32
12 | O=C(CCl)Nc1cccc(F)c1 [PCM-0102364, O=C(CCl)Nc1cccc(F)c1] | – | – | – | 9 | -15.960 | -15.960 | 0
13 | O=C(CCl)NCc1cc(F)cc(F)c1 [PCM-0102790, O=C(CCl)NCc1cc(F)cc(F)c1] | -16.548 | -16.548 | 0 | 0 | – | – | –
14 | O=C(CCl)Nc1ccccc1[N+](=O)[O-] [PCM-0102232, O=C(CCl)Nc1ccccc1[N+](=O)[O-]] | – | – | – | 24 | -15.562 | -15.562 | 20
15 | Cc1ccc(NC(=O)NC(=O)CCl)c(C)c1 [PCM-0102171, Cc1ccc(NC(=O)NC(=O)CCl)c(C)c1] | – | – | – | 20 | -15.812 | -15.812 | 10
16 | O=C(CCl)N1CCN(Cc2ccsc2)CC1 [PCM-0102739, O=C(CCl)N1CCN(Cc2ccsc2)CC1] | -15.640 | -15.640 | 0 | 7 | – | – | –
17 | O=C(CCl)Nc1cccc(C(=O)O)c1 [PCM-0102696, O=C(CCl)Nc1cccc(C(=O)O)c1] | – | – | – | 0 | -16.586 | -16.586 | 11
18 | O=C(CCl)NCc1ccccc1 [PCM-0102538, O=C(CCl)NCc1ccccc1] | – | – | – | 0 | -16.796 | -16.796 | 28

Row | Compound | ln(avg k) [1, 4] | ln(avg k) [1, 5] | OTUB2 % labeling ([2]; OTUB2 protein labeling) [%] | NUDT7 % labeling [3] [%] | ln(avg k) [1, 6] | ln(avg k) [1, 7] | OTUB2 % labeling [2] [%]
19 | CC(C)C(C)(C#N)NC(=O)CCl (centres unmarked) [PCM-0102626, CC(C)C(C)(C#N)NC(=O)CCl] | – | – | – | 0 | -15.951 | -15.951 | 0
20 | N#Cc1oc2ccccc2c1NC(=O)CCl [PCM-0102252, N#Cc1oc2ccccc2c1NC(=O)CCl] | – | – | – | 37 | -15.605 | -15.605 | 86
21 | CCN1CCC(NC(=O)CCl)CC1 [PCM-0102103, CCN1CCC(NC(=O)CCl)CC1] | – | – | – | 0 | -15.455 | -15.455 | 0
22 | O=C(CCl)N1CCN(S(=O)(=O)c2ccc(F)c(Cl)c2)CC1 [PCM-0102343, O=C(CCl)N1CCN(S(=O)(=O)c2ccc(F)c(Cl)c2)CC1] | – | – | – | 12 | -15.080 | -15.080 | 0
23 | COc1ccc2c(c1)CCCN2C(=O)CCl [PCM-0102325, COc1ccc2c(c1)CCCN2C(=O)CCl] | – | – | – | 12 | -15.257 | -15.257 | 0
24 | COCC(=O)NNC(=O)CCl [PCM-0103070, COCC(=O)NNC(=O)CCl] | -17.475 | -17.475 | 0 | 0 | – | – | –
25 | CN(Cc1ccccc1Br)C(=O)CCl [PCM-0102592, CN(Cc1ccccc1Br)C(=O)CCl] | – | – | – | 14 | -16.295 | -16.295 | 12
26 | COC(=O)c1ccc(C)c(NC(=O)CCl)c1 [PCM-0103027, COC(=O)c1ccc(C)c(NC(=O)CCl)c1] | -16.113 | -16.113 | 0 | 5 | – | – | –
27 | O=C(CCl)Nc1cc(Cl)ccc1Cl [PCM-0102288, O=C(CCl)Nc1cc(Cl)ccc1Cl] | – | – | – | 6 | -16.095 | -16.095 | 0
28 | Cc1ccc(NC(=O)NC(=O)CCl)cc1 [PCM-0102623, Cc1ccc(NC(=O)NC(=O)CCl)cc1] | – | – | – | 11 | -16.273 | -16.273 | 0
29 | O=C(CCl)NC(=O)Nc1ccccc1F [PCM-0102376, O=C(CCl)NC(=O)Nc1ccccc1F] | – | – | – | 0 | -15.900 | -15.900 | 0
30 | CC(NC(=O)CCl)C(=O)N1CCCCC1 (centres unmarked) [PCM-0102598, CC(NC(=O)CCl)C(=O)N1CCCCC1] | – | – | – | 0 | -16.794 | -16.794 | 0
31 | COc1ccc(NC(=O)CCl)cc1Cl [PCM-0102652, COc1ccc(NC(=O)CCl)cc1Cl] | – | – | – | 12 | -15.680 | -15.680 | 24
32 | CC1CN(C(=O)CCl)CCO1 (centres unmarked) [PCM-0102830, CC1CN(C(=O)CCl)CCO1] | -16.218 | -16.218 | 0 | 0 | – | – | –
33 | O=C(CCl)N1CCC(c2ccccc2)=N1 [PCM-0102150, O=C(CCl)N1CCC(c2ccccc2)=N1] | – | – | – | 0 | -14.898 | -14.898 | 0
34 | O=C(CCl)N1CCOCC1 [PCM-0102749, O=C(CCl)N1CCOCC1] | -17.466 | -17.466 | 0 | 0 | – | – | –
35 | Cc1cccc(C(C)C)c1NC(=O)CCl [PCM-0102358, Cc1cccc(C(C)C)c1NC(=O)CCl] | – | – | – | 0 | -16.961 | -16.961 | 0
